Structures can show the parent of a compound that is named as a salt. Where two headings read alike, the source gives them in different places.
Columns and labels:
Assay type in all cases: biochemical
[1] = target: T1, Recombinant Human Anaplastic Lymphoma Kinase (Homo sapiens, UniProt Q9UM73); experiment: ALK HTRF kinase assay
T1 construct: purchased Invitrogen, Carlsbad, Calif
Outline: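 Kinase activity of the recombinant human protein is measured on a biotinylated peptide, with a Eu-W1024 anti-phosphotyrosine antibody and streptavidin-allophycocyanin generating the homogeneous time-resolved fluorescence signal. Inhibition curves are fitted to yield IC50.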

[2] = target: T2, human JAK3 (a.a. 781-1124) (Homo sapiens, UniProt P52333); experiment: In vitro JAK kinase assay (HTRF, phosphorylation of a biotinylated peptide), JAK3
T2 construct: JAK3 (a.a. 781-1124); His tag (N); made in house; host or cells: insect cells (baculovirus)
Outline: (§1)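 Kinase reactions ran at room temperature for 1 h with ATP matched per isoform (JAK1 90 μM, JAK2 30 μM, JAK3 3 μM). After an EDTA stop, the phosphorylated biotin-peptide was read by HTRF using Eu-Py20 and SA-APC after 40 min binding.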

[3] = target: TYK2 (Homo sapiens, UniProt P29597); experiment: TYK2 kinase inhibition (Table A1)
[4] = target: T3, human JAK2 (a.a. 828-1132) (Homo sapiens, UniProt O60674); experiment: In vitro JAK kinase assay (HTRF, phosphorylation of a biotinylated peptide), JAK2
T3 construct: JAK2 (a.a. 828-1132); His tag (N); made in house; host or cells: insect cells (baculovirus)
Outline: as §1

[5] = target: T4, human JAK1 (a.a. 837-1142) (Homo sapiens, UniProt P23458); experiment: In vitro JAK kinase assay (HTRF, phosphorylation of a biotinylated peptide), JAK1; details: read-out: JAK1 IC50
T4 construct: human JAK1 (a.a. 837-1142); His tag (N); made in house; host or cells: insect cells (baculovirus)
Outline: as §1

[6] = compound at a concentration of 500 nM or 1 mM (not specified), cells shown as percentage
[7] = Table B1, cells without percent sign
[8] = compound at 500 nM or 1 mM, 90 μM ATP
[9] = method AA1 (3 μM ATP) or AA2 (1000 μM ATP), not stated per value
[10] = method AA1 (30 μM ATP) or AA2 (1000 μM ATP), not stated per value
[11] = method AA1 (90 μM ATP) or AA2 (1000 μM ATP), not stated per value

T4 sequence (P23458 849-1154): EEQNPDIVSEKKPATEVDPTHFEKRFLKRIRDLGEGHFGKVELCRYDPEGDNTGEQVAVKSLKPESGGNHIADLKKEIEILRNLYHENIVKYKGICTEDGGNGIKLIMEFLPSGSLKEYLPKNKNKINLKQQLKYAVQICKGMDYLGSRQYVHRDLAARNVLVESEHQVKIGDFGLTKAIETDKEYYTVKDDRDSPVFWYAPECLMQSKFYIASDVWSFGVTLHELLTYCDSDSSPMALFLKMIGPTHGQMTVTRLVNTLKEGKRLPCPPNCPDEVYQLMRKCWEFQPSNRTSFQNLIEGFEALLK
T2 sequence (P52333 781-1124): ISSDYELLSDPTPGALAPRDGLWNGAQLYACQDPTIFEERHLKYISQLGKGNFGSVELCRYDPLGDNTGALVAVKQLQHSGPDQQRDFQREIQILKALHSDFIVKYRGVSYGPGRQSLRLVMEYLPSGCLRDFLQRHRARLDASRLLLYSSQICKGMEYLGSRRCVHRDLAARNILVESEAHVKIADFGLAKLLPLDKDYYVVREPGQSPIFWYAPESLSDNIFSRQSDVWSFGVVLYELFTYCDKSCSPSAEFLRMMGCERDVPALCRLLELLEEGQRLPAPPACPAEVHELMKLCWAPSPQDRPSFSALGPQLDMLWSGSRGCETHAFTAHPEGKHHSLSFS
T3 sequence (O60674 828-1132): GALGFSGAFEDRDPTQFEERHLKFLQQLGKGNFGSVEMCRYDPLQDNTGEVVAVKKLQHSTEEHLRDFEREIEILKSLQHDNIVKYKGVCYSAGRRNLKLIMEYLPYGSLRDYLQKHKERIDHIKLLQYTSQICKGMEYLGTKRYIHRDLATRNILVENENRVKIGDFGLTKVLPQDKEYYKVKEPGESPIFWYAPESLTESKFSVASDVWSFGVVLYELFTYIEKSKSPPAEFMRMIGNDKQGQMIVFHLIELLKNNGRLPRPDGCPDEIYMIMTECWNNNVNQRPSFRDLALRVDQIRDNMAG
Sequence of TYK2 (P29597 whole entry): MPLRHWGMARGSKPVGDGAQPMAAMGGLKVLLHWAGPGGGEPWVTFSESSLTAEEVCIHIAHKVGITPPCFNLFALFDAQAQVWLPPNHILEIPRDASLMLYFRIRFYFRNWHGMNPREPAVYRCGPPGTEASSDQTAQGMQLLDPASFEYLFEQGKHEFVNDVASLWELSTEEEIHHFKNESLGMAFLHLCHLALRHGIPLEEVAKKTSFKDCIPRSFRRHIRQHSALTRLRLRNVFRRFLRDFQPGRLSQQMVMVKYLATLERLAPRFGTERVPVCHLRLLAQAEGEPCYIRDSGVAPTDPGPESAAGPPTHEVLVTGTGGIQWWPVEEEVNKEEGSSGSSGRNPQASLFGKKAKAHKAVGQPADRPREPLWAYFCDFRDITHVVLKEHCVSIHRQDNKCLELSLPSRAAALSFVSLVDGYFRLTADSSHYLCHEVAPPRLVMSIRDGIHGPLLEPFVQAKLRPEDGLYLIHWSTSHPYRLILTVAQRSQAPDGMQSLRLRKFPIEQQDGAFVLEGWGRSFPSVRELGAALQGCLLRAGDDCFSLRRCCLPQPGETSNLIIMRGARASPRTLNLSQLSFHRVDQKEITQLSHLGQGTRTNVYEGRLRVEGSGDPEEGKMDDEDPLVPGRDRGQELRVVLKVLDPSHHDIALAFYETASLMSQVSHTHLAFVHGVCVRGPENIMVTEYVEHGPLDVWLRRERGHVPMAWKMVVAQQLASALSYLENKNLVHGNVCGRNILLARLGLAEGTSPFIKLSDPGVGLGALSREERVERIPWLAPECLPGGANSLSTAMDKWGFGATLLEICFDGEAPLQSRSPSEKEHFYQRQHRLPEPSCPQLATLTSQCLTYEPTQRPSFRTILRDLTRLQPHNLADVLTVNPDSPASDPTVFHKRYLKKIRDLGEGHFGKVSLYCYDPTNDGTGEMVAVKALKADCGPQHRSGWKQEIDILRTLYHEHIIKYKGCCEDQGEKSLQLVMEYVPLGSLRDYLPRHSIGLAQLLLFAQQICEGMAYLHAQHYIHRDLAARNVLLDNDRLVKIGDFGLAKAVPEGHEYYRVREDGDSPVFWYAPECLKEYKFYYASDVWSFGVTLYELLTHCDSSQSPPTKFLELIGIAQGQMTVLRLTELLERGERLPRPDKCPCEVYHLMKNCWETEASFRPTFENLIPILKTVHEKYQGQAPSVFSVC
T1 sequence (Q9UM73 19-1620): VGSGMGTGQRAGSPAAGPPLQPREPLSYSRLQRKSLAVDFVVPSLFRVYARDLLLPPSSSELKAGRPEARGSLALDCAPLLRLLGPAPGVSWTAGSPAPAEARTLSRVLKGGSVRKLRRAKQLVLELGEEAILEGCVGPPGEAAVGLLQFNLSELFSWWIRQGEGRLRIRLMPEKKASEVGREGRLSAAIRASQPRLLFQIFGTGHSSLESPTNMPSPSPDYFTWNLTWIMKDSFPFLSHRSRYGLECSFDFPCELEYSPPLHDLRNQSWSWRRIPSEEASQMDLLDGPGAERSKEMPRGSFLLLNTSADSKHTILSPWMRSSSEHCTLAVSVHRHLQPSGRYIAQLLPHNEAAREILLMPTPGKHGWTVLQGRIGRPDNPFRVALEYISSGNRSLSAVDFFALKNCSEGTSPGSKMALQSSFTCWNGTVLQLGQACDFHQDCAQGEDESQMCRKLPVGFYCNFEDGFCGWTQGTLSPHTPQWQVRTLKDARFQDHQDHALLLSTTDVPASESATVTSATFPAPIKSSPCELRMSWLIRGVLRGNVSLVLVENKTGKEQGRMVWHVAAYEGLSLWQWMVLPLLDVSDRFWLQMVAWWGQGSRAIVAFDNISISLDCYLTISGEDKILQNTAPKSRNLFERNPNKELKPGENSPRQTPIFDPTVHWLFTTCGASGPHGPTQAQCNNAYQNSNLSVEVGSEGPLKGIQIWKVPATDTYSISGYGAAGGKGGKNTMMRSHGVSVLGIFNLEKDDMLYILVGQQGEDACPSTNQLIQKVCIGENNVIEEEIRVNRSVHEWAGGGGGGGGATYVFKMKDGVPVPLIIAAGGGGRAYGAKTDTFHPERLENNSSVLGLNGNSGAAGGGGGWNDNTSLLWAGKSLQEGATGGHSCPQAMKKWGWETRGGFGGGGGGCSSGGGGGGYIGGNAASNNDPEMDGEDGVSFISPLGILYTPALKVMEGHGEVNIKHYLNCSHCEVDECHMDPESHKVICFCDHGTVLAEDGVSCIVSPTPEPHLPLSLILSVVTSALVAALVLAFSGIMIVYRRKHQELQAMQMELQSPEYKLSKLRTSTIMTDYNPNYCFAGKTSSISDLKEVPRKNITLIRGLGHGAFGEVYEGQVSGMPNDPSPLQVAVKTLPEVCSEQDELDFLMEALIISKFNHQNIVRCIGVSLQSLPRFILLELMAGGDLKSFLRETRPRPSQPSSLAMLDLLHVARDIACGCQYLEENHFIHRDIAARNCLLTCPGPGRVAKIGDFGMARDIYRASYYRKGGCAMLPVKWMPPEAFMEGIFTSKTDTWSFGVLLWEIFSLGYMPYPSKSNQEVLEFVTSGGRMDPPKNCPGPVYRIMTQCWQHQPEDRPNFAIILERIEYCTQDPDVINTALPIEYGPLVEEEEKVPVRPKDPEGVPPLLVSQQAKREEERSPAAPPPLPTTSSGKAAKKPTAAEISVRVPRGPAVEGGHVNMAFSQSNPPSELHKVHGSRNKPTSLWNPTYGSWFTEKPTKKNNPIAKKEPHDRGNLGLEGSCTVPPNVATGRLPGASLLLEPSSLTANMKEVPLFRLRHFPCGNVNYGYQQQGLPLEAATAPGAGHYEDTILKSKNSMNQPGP

| IC50 ([2]; Table B1) [nM] | IC50 ([3]; Table B1) [nM] | IC50 ([4]; Table B1) [nM] | IC50 ([5]; Table B1) [nM] | ALK % of inhibition at a concentration of 500 nM or 1 mM [1, 8] [%] | IC50 [2, 9] [nM] | IC50 [3] [nM] | IC50 [4, 10] [nM] | IC50 [5, 11] [nM] | SMILES | also measured |
| --- | --- | --- | --- | --- | --- | --- | --- | --- | --- | --- |
| > 200 | 199 | 100 | 28 |  |  |  |  |  | CN(C(=O)Nc1ccc2cc1CCc1cncc(c1)Nc1ncc(Cl)c(n1)N2)[C@H]1CCN(C(=O)c2ccccc2)C1 [Example B291, N-[(3S)-1-Benzoylpyrrolidin-3-yl]-N′-[6-chloro-2,4,8,18,22-pentaazatetracyclo[14.3.1.1(3,7).1(9,13)]docosa-1(20),3(22),4,6,9(21),10,12,16,18-nonaen-12-yl]-N-methylurea bis(trifluoroacetate)] | ALK % of inhibition at a concentration of 500 nM or 1 mM [1, 6]: 58% |
| > 400 | 36 | 67 | 27 |  |  |  |  |  | O=C(Nc1ccc2cc1CCc1cncc(c1)Nc1ncc(Cl)c(n1)N2)N1CCN(c2ccc(F)cc2)CC1 [Example B297, N-[6-Chloro-2,4,8,18,22-pentaazatetracyclo[14.3.1.1(3,7).1(9,13)]docosa-1(20),3(22),4,6,9(21),10,12,16,18-nonaen-12-yl]-4-(4-fluorophenyl)piperazine-1-carboxamide tris(trifluoroacetate)] | ALK % of inhibition at a concentration of 500 nM or 1 mM [1, 6]: 66% |
| 67 | 15 | 3.5 | 9.2 |  |  |  |  |  | Brc1cnc2nc1Nc1cccc(c1)CCc1cccc(c1)N2 [Example B3, 6-Bromo-2,4,8,22-tetraazatetracyclo[14.3.1.1(3,7).1(9,13)]docosa-1(20),3(22),4,6,9(21),10,12,16,18-nonaene trifluoroacetate] | IC50 [1, 7]: 976 nM |
| 5.1 | 0.84 | 0.1 | 0.5 |  |  |  |  |  | O=S(=O)(Nc1ccc2cc1CCc1cccc(c1)Nc1ncc(Cl)c(n1)N2)c1ccc(Cl)cc1 [Example B139, 4-Chloro-N-[6-chloro-2,4,8,22-tetraazatetracyclo[14.3.1.1(3,7).1(9,13)]docosa-1(20),3(22),4,6,9(21),10,12,16,18-nonaen-12-yl]benzenesulfonamide trifluoroacetate] | IC50 [1, 7]: 290 nM |
| 20 | 7.7 | 2.1 | 1.3 |  |  |  |  |  | Cc1occc1NC(=O)Nc1ccc2cc1CCc1cccc(c1)Nc1ncc(Cl)c(n1)N2 [Example B118, N-[6-Chloro-2,4,8,22-tetraazatetracyclo[14.3.1.1(3,7).1(9,13)]docosa-1(20), 3(22),4,6,9(21),10,12,16,18-nonaen-12-yl]-N′-(2-methyl-3-furyl)urea trifluoroacetate] | ALK % of inhibition at a concentration of 500 nM or 1 mM [1, 6]: 22% |
|  |  |  |  |  |  | 60 |  |  | O=C1Cc2cccc(c2)Nc2ncc(Cl)c(n2)Nc2cccc(c2)N1 [Example C10, 6-Chloro-2,4,8,14,23-pentaazatetracyclo[15.3.1.1(3,7).1(9,13)]tricosa-1(21),3(23),4,6,9(22),10,12,17,19-nonaen-15-one trifluoroacetate] | IC50 [1]: > 10000 nM; IC50 [2]: > 1000 nM; IC50 [4]: 303 nM; IC50 [5]: 154 nM |
| 83 | 165 | 44 | 107 |  |  |  |  |  | COC(=O)c1cc2cc(c1)Nc1nc(ncc1Cl)Nc1cccc(c1)CC2 [Example B5, Methyl 6-chloro-2,4,8,22-tetraazatetracyclo[14.3.1.1(3,7).1(9,13)]docosa-1(20),3(22),4,6,9(21),10,12,16,18-nonaene-11-carboxylate trifluoroacetate] | IC50 [1, 7]: > 1000 nM |

More lines, now with the values behind:

| SMILES | IC50 ([2]; Table B1) [nM] | IC50 ([3]; Table B1) [nM] | IC50 ([4]; Table B1) [nM] | IC50 ([5]; Table B1) [nM] | ALK % of inhibition at a concentration of 500 nM or 1 mM [1, 8] [%] | IC50 [2, 9] [nM] | IC50 [3] [nM] | IC50 [4, 10] [nM] | IC50 [5, 11] [nM] | also measured |
| --- | --- | --- | --- | --- | --- | --- | --- | --- | --- | --- |
| NS(=O)(=O)N1CCC(CC(=O)Nc2ccc3cc2CCc2cccc(c2)Nc2ncc(Cl)c(n2)N3)CC1 [Example A75, 2-[1-(Aminosulfonyl)piperidin-4-yl]-N-[6-chloro-2,4,8,22-tetraazatetracyclo[14.3.1.1(3,7).1(9,13)]docosa-1(20),3(22),4,6,9(21),10,12,16,18-nonaen-12-yl]acetamide trifluoroacetate] |  |  |  |  | 51 | 3.2 | 0.3 | 0.2 | 0.2 |  |
| COc1ccc(S(=O)(=O)N2CCC(CC(=O)Nc3ccc4cc3CCc3cccc(c3)Nc3ncc(Cl)c(n3)N4)CC2)cc1 [Example A207, N-[6-Chloro-2,4,8,22-tetraazatetracyclo[14.3.1.1(3,7).1(9,13)]docosa-1(20),3(22),4,6,9(21),10,12,16,18-nonaen-12-yl]-2-{1-[(4-methoxyphenyl)sulfonyl]piperidin-4-yl}acetamide trifluoroacetate] |  |  |  |  | 23 | > 200 | > 200 | 199 | 85 |  |
| O=C(Nc1ccc2cc1CCc1cccc(c1)Nc1ncc(Cl)c(n1)N2)C1CCN(C(=O)NC2CCCC2)CC1 [Example A61, N(4)-[6-Chloro-2,4,8,22-tetraazatetracyclo[14.3.1.1(3,7).1(9,13)]docosa-1(20),3(22),4,6,9(21),10,12,16,18-nonaen-12-yl]-N(1)-cyclopentylpiperidine-1,4-dicarboxamide trifluoroacetate] |  |  |  |  | 41 | 16 | 22 | 11 | 29 |  |
| CNC(=O)N1CCC(CC(=O)Nc2ccc3cc2CCc2cncc(c2)Nc2ncc(Cl)c(n2)N3)CC1 [Example A100, 4-(2-{[6-Chloro-2,4,8,18,22-pentaazatetracyclo[14.3.1.1(3,7).1(9,13)]docosa-1(20),3(22),4,6,9(21),10,12,16,18-nonaen-12-yl]amino}-2-oxoethyl)-N-methylpiperidine-1-carboxamide bis(trifluoroacetate)] |  |  |  |  | 28 | 58 | 3 | 5.8 | 1.5 |  |
| N#Cc1ccccc1S(=O)(=O)N1CCC(CC(=O)Nc2ccc3cc2CCc2cccc(c2)Nc2ncc(Cl)c(n2)N3)CC1 [Example A208, N-[6-Chloro-2,4,8,22-tetraazatetracyclo[14.3.1.1(3,7).1(9,13)]docosa-1(20),3(22),4,6,9(21),10,12,16,18-nonaen-12-yl]-2-{1-[(2-cyanophenyl)sulfonyl]piperidin-4-yl}acetamide trifluoroacetate] |  |  |  |  | 17 | > 200 | 150 | 41 | 1.6 |  |
| CC(C)S(=O)(=O)c1ccc2cc1Nc1nc(ncc1Cl)Nc1cccc(c1)CC2 [Example A8, 6-Chloro-10-(isopropylsulfonyl)-2,4,8,22-tetraazatetracyclo[14.3.1.1(3,7).1(9,13)]docosa-1(20),3(22),4,6,9(21),10,12,16,18-nonaene trifluoroacetate] |  |  |  |  |  | 20 | 80 | 52 | 51 | IC50 ([1]; 90 μM ATP): 80 nM |
| O=C(COc1ccc2cc1CCc1cccc(c1)Nc1ncc(Cl)c(n1)N2)N1CCN(C(=O)Nc2ccccc2)CC1 [Example A13, 4-({[6-Chloro-2,4,8,22-tetraazatetracyclo[14.3.1.1(3,7).1(9,13)]docosa-1(20),3(22),4,6,9(21),10,12,16,18-nonaen-12-yl]oxy}acetyl)-N-phenylpiperazine-1-carboxamide trifluoroacetate] |  |  |  |  | 20 | 44 | 42 | 2.6 | 1 |  |
| O=C(CC1CCN(C(=O)c2nccs2)CC1)Nc1ccc2cc1CCc1cncc(c1)Nc1ncc(Cl)c(n1)N2 [Example A133, N-[6-Chloro-2,4,8,18,22-pentaazatetracyclo[14.3.1.1(3,7).1(9,13)]docosa-1(20),3(22),4,6,9(21),10,12,16,18-nonaen-12-yl]-2-[1-(1,3-thiazol-2-ylcarbonyl)piperidin-4-yl]acetamide bis(trifluoroacetate)] |  |  |  |  | 32 | 73 | 5.5 | 11 | 2.1 |  |
| O=C(CC1CCN(c2ccccn2)CC1)Nc1ccc2cc1CCc1cncc(c1)Nc1ncc(Cl)c(n1)N2 [Example A170, N-[6-Chloro-2,4,8,18,22-pentaazatetracyclo[14.3.1.1(3,7).1(9,13)]docosa-1(20),3(22),4,6,9(21),10,12,16,18-nonaen-12-yl]-2-(1-pyridin-2-ylpiperidin-4-yl)acetamide tris(trifluoroacetate)] |  |  |  |  | 37 | > 1000 | 250 | 165 | 7.8 |  |
| Cn1ccc(C(=O)N2CCC(CC(=O)Nc3ccc4cc3CCc3cncc(c3)Nc3ncc(Cl)c(n3)N4)CC2)n1 [Example A130, N-[6-Chloro-2,4,8,18,22-pentaazatetracyclo[14.3.1.1(3,7).1(9,13)]docosa-1(20),3(22),4,6,9(21),10,12,16,18-nonaen-12-yl]-2-{1-[(1-methyl-1H-pyrazol-3-yl)carbonyl]piperidin-4-yl}acetamide bis(trifluoroacetate)] |  |  |  |  | 26 | 203 | 4.8 | 9.2 | 1.2 |  |
